1 molecule from article PMC11255275, “Structural insights into the triple agonism at GLP-1R, GIPR and GCGR manifested by retatrutide” (Cell Discovery, 2024) can be followed below.

The target of the test is T1, GIPR mutants (Homo sapiens, UniProt P48546, Q285A).
T1 construct: expressed in transfected cells; host or cells: HEK-293T
Briefly: cAMP accumulation, single-point mutated GIPR. To be noted: GIPR Q285(ECL2)A; HEK-293T, 40 min, TR-FRET; mean ± S.E.M., n at least 3. The class given is cell-based. How it is done:
HEK-293T cells were maintained at 37°C in 5% CO2 incubator and seeded onto 6-well cell […]
culture plates before transfection. After overnight culture, the cells were transiently transfected […]
with various constructs using Lipofectamine 2000 transfection reagent (Invitrogen). After 24 h, […]
the transfected cells were seeded onto 384-microtiter plates at a density of 3,000 cells per well […]
in stimulation buffer (HBSS supplemented with 5 mM HEPES, 0.1% (w/v) casein and 0.5 mM […]
3-isobutyl-1-methylxanthine). Different concentrations of retatrutide in stimulation buffer were […]
added, and the stimulation lasted for 40 min. The reaction was stopped by addition of cAMP […]
detection buffer containing Eu-cAMP tracer and ULight-anti-cAMP. Plates were then incubated for […]
60 min at RT. Time-resolved FRET signals were measured at 620 nm and 665 nm, respectively, by […]
an EnVision multilabel plate reader (PerkinElmer). Data were analyzed in GraphPad PRISM 9.5 […]
and all values were normalized to that of the wild-type (WT).
Supplementary Fig. 5 Effects of receptor mutation on retatrutide-induced cAMP […]
accumulation. a-c, Signaling profiles of GLP-1R (a), GIPR (b) and GCGR (c) mutants. cAMP […]
accumulation was measured in wild-type (WT) and single-point mutated GLP-1R, GIPR or […]
GCGR expressing HEK-293T cells. cAMP levels were normalized to the maximum response […]
of the WT and dose-response curves were analyzed using a three-parameter logistic equation.
Data were generated and graphed as means ± S.E.M. of at least three independent experiments performed in quadruplicate.
(1 picture or pasted object on this page, not shown here)
Supplementary Ta b l e S 5 Effects of the ligand-binding pocket residue mutation on retatrutide- […]
induced cAMP signaling at GLP-1R, GIPR or GCGR. […]
cAMP levels were normalized to the maximum response of the wild-type (WT) and dose-response […]
curves were analyzed using a three-parameter logistic equation to obtain pEC50 and Emax values. The […]
experiments were carried out independently at least three times. Data shown are means ± S.E.M. One- […]
way ANOVA was used to determine statistical difference. N.D., values that could not be determined due […]
to incomplete curve fits. *P< 0.05, **P< 0.01, ***P< 0.001 and ****P<0.0001.
In general terms: Changes in cAMP serve as a functional read-out for many G protein-coupled receptors.

The structures appear in SMILES notation.

T1 sequence (P48546 22-466 Q285A): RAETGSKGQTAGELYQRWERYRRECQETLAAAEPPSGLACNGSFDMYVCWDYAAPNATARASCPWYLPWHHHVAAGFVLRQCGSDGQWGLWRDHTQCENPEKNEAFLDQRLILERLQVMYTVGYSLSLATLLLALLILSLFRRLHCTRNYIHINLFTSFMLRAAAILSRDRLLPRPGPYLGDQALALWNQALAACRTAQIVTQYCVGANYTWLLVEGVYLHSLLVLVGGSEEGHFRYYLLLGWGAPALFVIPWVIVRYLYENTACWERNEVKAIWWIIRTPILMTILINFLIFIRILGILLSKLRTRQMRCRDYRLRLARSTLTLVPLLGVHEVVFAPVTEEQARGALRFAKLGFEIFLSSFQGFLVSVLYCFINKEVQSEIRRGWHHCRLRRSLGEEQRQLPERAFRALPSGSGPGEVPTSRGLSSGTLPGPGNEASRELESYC

Broadly, the EC50 is the midpoint of the concentration-response curve. Read a low EC50 as a more potent agent. Turning to `CC[C@H](C)[C@H](NC(=O)[C@H](Cc1ccccc1)NC(=O)[C@H](C)NC(=O)C(C)(C)NC(=O)[C@H](CCC(N)=O)NC(=O)[C@H](C)NC(=O)[C@H](CCCCNC(=O)COCCOCCNC(=O)CC[C@H](NC(=O)CCCCCCCCCCCCCCCCCCC(=O)O)C(=O)O)NC(=O)[C@H](CCCCN)NC(=O)[C@H](CC(=O)O)NC(=O)[C@H](CC(C)C)NC(=O)[C@](C)(CC(C)C)NC(=O)[C@@H](NC(=O)[C@H](CO)NC(=O)[C@H](Cc1ccc(O)cc1)NC(=O)[C@H](CC(=O)O)NC(=O)[C@H](CO)NC(=O)[C@@H](NC(=O)[C@H](Cc1ccccc1)NC(=O)[C@@H](NC(=O)CNC(=O)[C@H](CCC(N)=O)NC(=O)C(C)(C)NC(=O)[C@@H](N)Cc1ccc(O)cc1)[C@@H](C)O)[C@@H](C)O)[C@@H](C)CC)C(=O)N[C@@H](CCC(=O)O)C(=O)N[C@@H](Cc1ccc(O)cc1)C(=O)N[C@@H](CC(C)C)C(=O)N[C@@H](CC(C)C)C(=O)N[C@@H](CCC(=O)O)C(=O)NCC(=O)NCC(=O)N1CCC[C@H]1C(=O)N[C@@H](CO)C(=O)N[C@@H](CO)C(=O)NCC(=O)N[C@@H](C)C(=O)N1CCC[C@H]1C(=O)N1CCC[C@H]1C(=O)N1CCC[C@H]1C(=O)N[C@@H](CO)C(N)=O` [retatrutide], the response was half-maximal at 1.74 pM (EC50) and the “Emax ± S.E.M. (% WT)” value is on record as 100.34 ± 4.02 % WT.
